Assay [1] has as its system algaes native. As to conditions: algaes native (fluorescence), Conrad (1993); cited from earlier work.
Assay [2] has as its target T1, PSII (Thermosynechococcus vestitus, UniProt P0A444). The note with it: cited from earlier work.
Assay [3] has as its system stabilised thylakoid membranes. As to the kind of experiment: Inhibition of photosynthetic efficiency of stabilised thylakoid membranes measured by fluorescence (F2-F1)/F2. Type of assay: biochemical, spinach. The source says:
In a specific embodiment, a fluorometer continuously illuminates weakly the photosynthetic biological material with a light emitting diode (LED) emitting light at a wavelength of 475 or at 660 nm. Better results were obtained with the 475 nm wavelength. In order to obtain a higher sensitivity for measuring the photosynthetic response to toxic molecules, the intensity of the low excitation light was adjusted so as to obtain a F1 fluorescence level slightly higher than F0.
Fluorescence measured 2 sec after turning on one LED is F1. Three additional LEDs are then turned on so as to induce actinic illumination F2. Dispersion of LEDs is illustrated in FIG. 1. Light beams are oriented so as to form together a point of convergence precisely at the level where the photodiode is read. After a specific time, selected according to the nature of the thylakoid membranes used (eg. source of thylakoids, etc.) (Table 1), of the background noise and of the level of sensitivity sought, the F2 fluorescence is measured. To determine F1 and F2, the fluorometer measures wavelengths higher than 650 nm when the illumination is at 475 nm, and higher than 700 nm when illumination is at 660 nm.
The photosynthetic efficiency is determined with the following formula (F2−F1)/F2. Preferably, the photosynthetic efficiency of the stabilised thylakoids is 0.8±0.1. Any molecule affecting the photosystems modifies either F1 or F2 which modification necessarily disrupts (increases or decreases) the photosynthetic efficiency. The inhibition curve of a particular molecule is determined by calculating the activity of the photosystems in the absence of the molecule and in the presence of the molecule and comparing both efficiency as follows as described in Conrad 1993:
Without inhibitor (wi): efficiency(wi)=(F2(wi)−F1(wi))/F2(wi) With inhibitor: Relative photosynthetic efficiency(sample)=(F2(sample)−F1(sample))/F2(wi) Percentage efficiency: efficiency (%)=(efficiency(sample)×100)/efficiency(wi) Percentage inhibition: Inhibition (%)=100−efficiency (%)
The individual test tubes (100 μL lyophilised thylakoid membranes) were resuspended in 2 mL of water or tested samples. The concentrated batch of test tubes was resuspended in water, in Buffer 1 (HEPES-NaOH 50 mM pH 7.5 buffer containing sucrose 330 mM, MgCl2 20 mM, NH4Cl 10 mM, PEG 4000 4% (p/v)); or in Buffer 2 (phosphate buffer 0.1 M pH 6.5 containing sucrose 330 mM, NH4Cl 10 mM, MgCl2 20 mM, EDTA 10 mM, PEG 4000 4% (p/v)). A combination of buffered solutions 1 and 2 may also be used. […] These different buffers rs produce different results in the detection sensitivity (see Table 3 above). The final volume obtained depends on the quantity of lyophilised membranes used (2.5 mL for 25 tests, 5 mL for 50 tests).
Before use, the tubes containing stabilised thylakoid membranes were retrieved from storage. If they were stored in the freezer or the refrigerator, they were tempered 30 minutes at room temperature and in the dark. Two milliliters of fluid samples and the required volume of MgCl2 mother solution to get 0-10 mM MgCl2 (depending on tested samples) were added to 100 μL of the thylakoids membranes formulation at a concentration of 5 μg/mL. The tubes are then shook by inversion for 2 min. […]

Assay [4] addresses T1, PSII. As to conditions: PSII Clark electrode (amperometry), Koblizek (2002), cited from earlier work.
The test system of assay [5] is Physically immobilised thylakoids. As to conditions: physically immobilised thylakoids (electrochemistry), Laberge (2000); cited from earlier work.
The subject of assay [6] is algaes native. The note with it: algaes native (fluorescence), Jay (1997); cited from earlier work.
The test system of assay [7] is Chemically immobilised thylakoids. The note with it: chemically immobilised thylakoids (electrochemistry), Laberge (1999); cited from earlier work.
The mark [8] stands for this setting: Buffer 1 + 5 mM MgCl2 (in cuvette).
The mark [9] stands for this setting: membranes resuspended in Buffer 1.
The mark [10] stands for this setting: membranes resuspended in Buffer 2.
Setting [11] is: stabilised thylakoid membranes of the present invention (fluorescence).

In brackets after ≈: the same amount, converted by molar mass. Like-named read-outs stand apart in the source and are kept apart here. Some results are limits rather than exact numbers.

As usually defined, the IC50 is the midpoint of a concentration-inhibition curve. For the compound `CN(C)C(=O)Nc1ccc(Cl)c(Cl)c1` [Diuron], the IC50 in assay [1] was 959 µg/mL (≈ 4110 µM); in assay [2], 686 µM; in assay [3] (setting [8]), 0.011 µg/mL; in assay [3] (setting [9]), 0.022 µg/mL; in assay [3] (setting [10]), 0.02 µg/mL; in assay [3] (setting [11]), 71 µg/mL. The IC50 was 81.5 µM in assay [4] (read-out: IC50 (converted)), 130 µg/mL (≈ 558 µM) in assay [5], 12 µg/mL (≈ 51.5 µM) in assay [6] and 120 µg/mL (≈ 515 µM) in assay [7]. Moreover, the Threshold is on record as 0.002 mg/L in assay [3] (setting [8]); 0.0006 mg/L in assay [3] (setting [9]); under 0.001 mg/L in assay [3] (setting [10]); 0.002 mg/L in assay [3] (setting [11]); 0.0001 mg/L in assay [4]; 0.002 mg/L in assay [6]. For the same compound, in assay [7], the Threshold is listed as 0.01 mg/L.
